The text below walks through data of ChEMBL document CHEMBL4368907 (J Med Chem, 2019).

Data set [1] can be described thus: Chemical stability of the compound in sodium phosphate buffer assessed as loss of purity 0.5 mM at pH 7.4 at 37 degC after 1 week by UHLPC-UV analysis. Format: physicochemical. The conditions noted are these: read-out: Drug degradation.
Data set [2] in a line: Chemical stability of the compound in sodium phosphate buffer assessed as purity 0.5 mM at pH 2.2 at 37 degC after 1 week by UHLPC-UV analysis. Format: physicochemical. The note with it: read-out: Stability.
Data set [3] is described as follows: Drug level in Ellegaard Gottingen minipig plasma treated with C18d-gammaGlu-(OEG)2-Asp-Phe(4sm)-Nle-Gly-Trp-Nle-DMeAspMePhe-NH2 at 5 nmol/kg, iv administered as single dose by LC-MS/MS analysis. Format: ADME, organism-based, Sus scrofa. The conditions noted are these: pig, in vivo.
Data set [4] addresses T1, Cholecystokinin receptor type A (Homo sapiens, UniProt P32238).
T1 sequence (P32238 whole entry): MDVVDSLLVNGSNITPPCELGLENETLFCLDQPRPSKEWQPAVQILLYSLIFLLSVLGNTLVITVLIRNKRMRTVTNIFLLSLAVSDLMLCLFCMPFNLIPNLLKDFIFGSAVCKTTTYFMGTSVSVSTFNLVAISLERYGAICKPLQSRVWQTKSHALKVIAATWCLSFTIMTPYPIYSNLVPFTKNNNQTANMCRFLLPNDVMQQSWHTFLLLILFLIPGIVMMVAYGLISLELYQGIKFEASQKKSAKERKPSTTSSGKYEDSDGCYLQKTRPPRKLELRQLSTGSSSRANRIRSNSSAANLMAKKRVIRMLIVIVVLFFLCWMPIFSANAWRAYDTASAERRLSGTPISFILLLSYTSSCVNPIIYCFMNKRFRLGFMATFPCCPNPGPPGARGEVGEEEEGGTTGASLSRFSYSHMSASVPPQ
Description: Displacement of [125I]-CCK-8 from human CCK1R expressed in human 1321N1 cell membranes after 2 hrs by SPA assay. Background: Displacement assays read how much labelled ligand stays bound in the presence of the test substance.

Data set [5] deals with T1, Cholecystokinin receptor type A. Description: Agonist activity at human CCK1R expressed in human 1321N1 cells assessed as IP1 accumulation after 1 hr by HTRF assay. Format: functional, cell-based. Background: In TR-FRET formats the signal depends on donor and acceptor labels being close together.
Data set [6] can be described thus: Toxicity in lean Landrace Yorkshire Duroc pig at 30 nmol/kg, sc measured up to 96 hrs post dose. Format: organism-based, Sus scrofa. The note with it: in vivo.
The nature of data set [7]: Plasma concentration in lean Landrace Yorkshire Duroc pig at 30 nmol/kg, sc measured after 96 hrs post dose. Format: ADME, organism-based, Sus scrofa.
Data set [8] in a line: Terminal half life in Ellegaard Gottingen minipig at 5 nmol/kg, iv by LC-MS/MS analysis. Format: ADME, organism-based, Sus scrofa. The note with it: pig, in vivo, read-out: beta t1/2 (converted).
In data set [9] the target is T2, Gastrin/cholecystokinin type B receptor (Homo sapiens, UniProt P32239).
T2 sequence (P32239 whole entry): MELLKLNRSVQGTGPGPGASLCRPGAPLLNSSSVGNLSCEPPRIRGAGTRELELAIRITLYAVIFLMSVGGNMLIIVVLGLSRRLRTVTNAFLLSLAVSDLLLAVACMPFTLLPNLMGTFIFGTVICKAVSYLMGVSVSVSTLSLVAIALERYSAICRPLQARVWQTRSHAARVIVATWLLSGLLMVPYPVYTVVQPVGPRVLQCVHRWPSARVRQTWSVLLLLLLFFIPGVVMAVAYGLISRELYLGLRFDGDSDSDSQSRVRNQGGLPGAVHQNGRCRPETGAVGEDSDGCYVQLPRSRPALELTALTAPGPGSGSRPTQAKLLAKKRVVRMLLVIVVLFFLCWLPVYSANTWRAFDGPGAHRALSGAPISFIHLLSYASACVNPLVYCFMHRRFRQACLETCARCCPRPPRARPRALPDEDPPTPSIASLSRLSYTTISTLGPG
Description: Displacement of [125I]-CCK-8 from human CCK2R expressed in human 1321N1 cell membranes after 2 hrs by SPA assay.

Data set [10] deals with T2, Gastrin/cholecystokinin type B receptor. Description: Agonist activity at human CCK2R expressed in human 1321N1 cells assessed as IP1 accumulation after 1 hr by HTRF assay. Format: functional, cell-based.
The test system of data set [11] is Sus scrofa. Description: Anti-obesity activity in lean Landrace Yorkshire Duroc pig assessed as food intake at 30 nmol/kg, sc measured at 24 to 48 hrs post dose (reference value: 1.8 to 2.1 kg). Format: functional.
For data set [12], the system named is Sus scrofa. Description: Anti-obesity activity in lean Landrace Yorkshire Duroc pig assessed as food intake at 30 nmol/kg, sc measured at 48 to 72 hrs post dose (reference value: 1.8 to 2.1 kg). Format: functional.
In data set [13] the test system is Sus scrofa. Description: Anti-obesity activity in lean Landrace Yorkshire Duroc pig assessed as food intake at 30 nmol/kg, sc measured at 72 to 96 hrs post dose (reference value: 1.8 to 2.1 kg). Format: functional.
The test system of data set [14] is Sus scrofa. Description: Anti-obesity activity in lean Landrace Yorkshire Duroc pig assessed as food intake at 30 nmol/kg, sc measured up to 24 hrs post dose (reference value: 1.8 to 2.1 kg). Format: functional.
The nature of data set [15]: Drug level in sodium phosphate buffer treated with 1 mM (2R,5S,8S,14S,17S,20S,43S)-8-((1H-indol-3-yl)methyl)-2-(((S)-1-amino-1-oxo-3-phenylpropan-2-yl)(methyl)carbamoyl)-5,14-dibutyl-20-(carboxymethyl)-3-methyl-4,7,10,13,16,19,22,31,40,45-decaoxo-17-(4-(sulfomethyl)benzyl)-24,27,33,36-tetraoxa-3,6,9,12,15,18,21,30,39,44-decaazahenhexacontane-1,43,61-tricarboxylic acid assessed as compound formation at pH 7.4 at 37 degC after 1 to 2 weeks by UHLPC-UV analysis. Format: physicochemical.

Numbered stars: 1 amine (or outer) side, 2 acyl side, 3 side chain; on linkers, the order of the positions; unused ones are H or OH. Square brackets hold non-standard residues; d marks the D form. Side chains are listed from the residue outwards. Peptide text beside a SMILES is read from it. * marks the point of attachment. Phe(4-CH2SO3H) = N[C@@H](Cc1ccc(CS(=O)(=O)O)cc1)C(=O)O; sY = N[C@@H](Cc1ccc(OS(=O)(=O)O)cc1)C(=O)O; C18 diacid = O=C(O)CCCCCCCCCCCCCCCCC(=O)*; γGlu = O=C(O)[C@H](CCC(=O)[*:2])N[*:1]; βAsp = O=C(O)[C@H](CC(=O)[*:2])N[*:1]; NMeF = CN[C@@H](Cc1ccccc1)C(=O)O; NMeD = CN[C@@H](CC(=O)O)C(=O)O; dNMeD = CN[C@H](CC(=O)O)C(=O)O; Nle = CCCC[C@H](N)C(=O)O; X1 = O=C(Cc1ccc(O)cc1)*; AEEA = NCCOCCOCC(=O)O

As usually defined, the pIC50 is the IC50 on a negative log10 scale, so that one unit is a factor of ten. One may read the pEC50 as the EC50 on a negative log10 scale, so that one unit is a factor of ten. The IC50 is the concentration needed to halve the response being measured. High values mean weaker potency, low ones greater potency. As usually defined, the EC50 is the concentration giving half of the maximal effect.

With `CCCC[C@H](NC(=O)[C@H](Cc1ccc(OS(=O)(=O)O)cc1)NC(=O)[C@H](CC(=O)O)NC(=O)COCCOCCNC(=O)COCCOCCNC(=O)CC[C@H](NC(=O)CCCCCCCCCCCCCCCCC(=O)O)C(=O)O)C(=O)NCC(=O)N[C@@H](Cc1c[nH]c2ccccc12)C(=O)N[C@@H](CCCC)C(=O)N[C@@H](CC(=O)O)C(=O)N[C@@H](Cc1ccccc1)C(N)=O`, in [1], the degraded at 168 h, 500 µM came out at 0.8%. Further, the remaining at 168 h, 500 µM in data set [2] amounted to 22%.

Turning to `O=C(O)CCCCCCCCCCCCCCCCC(=O)N[C@@H](CCC(=O)NCCOCCOCC(=O)NCCOCCOCC(=O)N[C@@H](CC(=O)O)C(=O)N[C@@H](Cc1ccc(CS(=O)(=O)O)cc1)C(=O)O)C(=O)O`, in [3], the Drug uptake entry is “Active”.

For `CCCC[C@H](NC(=O)[C@H](Cc1c[nH]c2ccccc12)NC(=O)CNC(=O)[C@H](CCCCNC(=O)COCCOCCNC(=O)COCCOCCNC(=O)CC[C@H](NC(=O)CCCCCCCCCCCCCCCCC(=O)O)C(=O)O)NC(=O)Cc1ccc(O)cc1)C(=O)N(C)[C@@H](CC(=O)O)C(=O)N(C)[C@@H](Cc1ccccc1)C(N)=O` (X1-K([AEEA-AEEA-γGlu-C18 diacid])GW[Nle][NMeD][NMeF]-NH2), the pIC50 came to 9.28 in data set [4] and 5.43 in [9]. In addition, the values for the pEC50 in data set [5] and in data set [10] were 9.8 and under 6, respectively. For the same compound, the Activity result in data set [6] is on record as “Non-Toxic”. In addition, the concentration at 96 h in data set [7] was under 0.9 nM. For the same compound, in data set [8], the half-life is 7.1 h.

For `CCCC[C@H](NC(=O)[C@H](Cc1ccc(CS(=O)(=O)O)cc1)NC(=O)C[C@H](NC(=O)COCCOCCNC(=O)COCCOCCNC(=O)CC[C@H](NC(=O)CCCCCCCCCCCCCCCCC(=O)O)C(=O)O)C(=O)O)C(=O)NCC(=O)N[C@@H](Cc1c[nH]c2ccccc12)C(=O)N[C@@H](CCCC)C(=O)N(C)[C@H](CC(=O)O)C(=O)N(C)[C@@H](Cc1ccccc1)C(N)=O` ({C18 diacid-γGlu-AEEA-AEEA-βAsp}-[Phe(4-CH2SO3H)][Nle]GW[Nle][dNMeD][NMeF]-NH2), the Activity was 1.5 kg in data set [11]; “Non-Toxic” in [6]; 1.8 kg in [12]; 1.7 kg in [13]; 1.1 kg in data set [14]. This compound also showed an IC50 in [4] of 0.0794 nM. For the same compound, the EC50 in data set [5] is 0.316 nM. For the same compound, the concentration at 96 h in data set [7] worked out at 88.7 nM. Further, in data set [8], the half-life is 106 h. Moreover, the Drug uptake result in [15] is listed as “Active”.

For `CCCC[C@H](NC(=O)[C@H](Cc1ccc(CS(=O)(=O)O)cc1)NC(=O)[C@H](CC(=O)O)NC(=O)COCCOCCNC(=O)COCCOCCNC(=O)CC[C@H](NC(=O)CCCCCCCCCCCCCCCCC(=O)O)C(=O)O)C(=O)NCC(=O)O` ({C18 diacid-γGlu-AEEA-AEEA}-D[Phe(4-CH2SO3H)][Nle]G-OH), the Drug uptake result in [3] is given as “Active”.

As to `CCCC[C@H](NC(=O)[C@H](Cc1ccc(CS(=O)(=O)O)cc1)NC(=O)[C@H](CC(=O)O)NC(=O)COCCOCCNC(=O)COCCOCCNC(=O)CC[C@H](NC(=O)CCCCCCCCCCCCCCCCC(=O)O)C(=O)O)C(=O)NCC(=O)N[C@@H](Cc1c[nH]c2ccccc12)C(=O)N[C@@H](CCCC)C(=O)N(C)[C@@H](CC(=O)O)C(=O)O` ({C18 diacid-γGlu-AEEA-AEEA}-D[Phe(4-CH2SO3H)][Nle]GW[Nle][NMeD]-OH), the Drug uptake result in data set [3] is on record as “Active”.

For `CCCC[C@H](NC(=O)[C@H](Cc1ccc(CS(=O)(=O)O)cc1)NC(=O)[C@H](CC(=O)O)NC(=O)COCCOCCNC(=O)COCCOCCNC(=O)CC[C@H](NC(=O)CCCCCCCCCCCCCCCCC(=O)O)C(=O)O)C(=O)NCC(=O)N[C@@H](Cc1c[nH]c2ccccc12)C(=O)N[C@@H](CCCC)C(=O)N(C)[C@@H](CC(=O)O)C(=O)N(C)[C@@H](Cc1ccccc1)C(N)=O` ({C18 diacid-γGlu-AEEA-AEEA}-D[Phe(4-CH2SO3H)][Nle]GW[Nle][NMeD][NMeF]-NH2), the Activity in [11] was 2 kg; in data set [6], “Non-Toxic”; in data set [12], 2.3 kg; in [13] it was 2.2 kg; in [14], 1.9 kg. Further, the results for the IC50 in data set [4] and in data set [9] were 0.316 nM and 8710 nM, respectively. The EC50 in data set [5] was 0.107 nM; in data set [10], over 1000 nM. Also, the concentration at 96 h in data set [7] came to 93.9 nM.

Turning to `CC(C)C[C@H](NC(=O)[C@H](Cc1ccc(OS(=O)(=O)O)cc1)NC(=O)[C@H](CC(=O)O)NC(=O)COCCOCCNC(=O)COCCOCCNC(=O)CC[C@H](NC(=O)CCCCCCCCCCCCCCCCC(=O)O)C(=O)O)C(=O)NCC(=O)N[C@@H](Cc1c[nH]c2ccccc12)C(=O)N[C@@H](CCC(N)=O)C(=O)N(C)[C@H](CC(=O)O)C(=O)N(C)[C@@H](Cc1ccccc1)C(N)=O` ({C18 diacid-γGlu-AEEA-AEEA}-D[sY]LGWQ[dNMeD][NMeF]-NH2), the Activity in data set [11] was 1.3 kg; in data set [6], “Non-Toxic”; in [12], 1.8 kg; in data set [13], 1.8 kg; in [14], 1.4 kg. Moreover, the EC50 in data set [5] was 0.135 nM. The concentration at 96 h in data set [7] stood at 91.2 nM.

For the compound `CCCC[C@H](NC(=O)[C@H](Cc1ccc(CS(=O)(=O)O)cc1)NC(=O)[C@H](CC(=O)O)NC(=O)COCCOCCNC(=O)[C@H](CCCCN)NC(=O)COCCOCCNC(=O)COCCOCCNC(=O)CC[C@H](NC(=O)CCCCCCCCCCCCCCCCC(=O)O)C(=O)O)C(=O)NCC(=O)N[C@@H](Cc1c[nH]c2ccccc12)C(=O)N[C@@H](CCCC)C(=O)N(C)[C@H](CC(=O)O)C(=O)N(C)[C@@H](Cc1ccccc1)C(N)=O` ({C18 diacid-γGlu-AEEA-AEEA}-K[AEEA]D[Phe(4-CH2SO3H)][Nle]GW[Nle][dNMeD][NMeF]-NH2), the Activity in data set [11] is 1.2 kg; in [6], “Non-Toxic”; in data set [12] it was 1.6 kg; in [13], 1.8 kg; in [14], 0.9 kg. In addition, the results for the IC50 in [4] and in data set [9] were 0.0631 nM and 129 nM, respectively. The EC50 in data set [5] is 0.214 nM. Moreover, the concentration at 96 h in data set [7] was 8.8 nM.
